We go through three molecules from article PMC5522529, “Mechanisms of Paradoxical Activation of AMPK by the Kinase Inhibitors SU6656 and Sorafenib” (Cell Chemical Biology, 2017).

The target in experiment [1] is T1, α1 kinase domain (α1-KD, residues 1–312) (Homo sapiens, UniProt Q13131).
T1 construct: amplifying residues 1-312 with an N-terminal FLAG-tag; expressed in transfected cells; host or cells: HEK293 (transient transfection, pcDNA5 FRT)
The experiment can be described thus: Activity of FLAG-tagged α1 kinase domain expressed in HEK293 cells. The class given is cell-based. Conditions: 1 hr. The source says: (§1) We next expressed an FLAG-tagged α1 kinase domain (α1-KD, residues 1–312) by transient transfection in HEK293 cells, treated the cells with various AMPK activators, and then assayed both the expressed α1-KD (precipitated using anti-FLAG) and endogenous full-length α1 complexes (precipitated using anti-α1 antibodies recognizing an epitope outside the α1-KD). […] This was also observed with A23187, as expected since this ionophore increases intracellular Ca^2+ and activates the alternate upstream kinase CaMKK2.
(§2) The α1-KD was precipitated using anti-FLAG and endogenous AMPK complexes using anti-α1 antibody, and activity determined. Results (mean ± SD, n = 2) are expressed relative to activities in DMSO controls. (B) Western blots (n = 2) using the indicated antibodies; samples from experiment in (A). (C) DNAs encoding FLAG-tagged AMPK-α1 (WT or AT mutant) were expressed by transient transfection in HEK293 cells, the cells treated with increasing concentrations of SU6656 for 1 hr, AMPK complexes precipitated with anti-FLAG, and activity measured. Results (mean ± SD, n = 3) are expressed relative to the DMSO control. […] Results (mean ± SD, n = 3) are expressed relative to the DMSO control. **p < 0.01, ***p < 0.001, ****p < 0.0001, ^†††p < 0.001; ns, not significant.
A plasmid encoding the AMPK-α2 kinase domain (α2-KD) was made by amplifying residues 1-310 with 5' BamH1 and 3' Xho1 sites, the resulting PCR product was cloned into pGEX6P2. Point mutations were generated using the Quikchange II site-directed mutagenesis kit (Stratagene) and confirmed by DNA sequencing.

Experiment [2] concerns the target T2, endogenous full-length α1 complexes (Homo sapiens, UniProt Q13131).
T2 construct: endogenous in cells
The experiment can be described thus: Activity of endogenous full-length α1 complexes in HEK293 cells. To be noted: 1 hr. The class given is cell-based.
Excerpt: as §1, §2

The next experiment deals with HEK293 cells. As to the kind of experiment: Cellular oxygen uptake. In kind it is cell-based, human. On the procedure:
(§3) (B) WT or RG cells were treated as in (A) and nucleotides extracted for analysis (mean ± SD, n = 3). […] (E) (See also Figure S2) Time courses of cellular oxygen uptake before and after addition of the indicated concentrations of sorafenib (SO, μM), SU6656 (100 μM) or phenformin (PHEN, 10 mM) (mean ± SEM, n = 4). (F) Effect of various concentrations of sorafenib or phenformin (10 mM) on activation (top, mean ± SEM, n = 3) or phosphorylation (bottom) of AMPK in cells expressing wild-type AMPK-γ2 (WT) or the R531G mutant AMPK-γ2 (RG). In all panels, asterisks show significant differences from DMSO controls (ns, not significant). In (B), daggers (†) show significant differences between results in WT and RG cells. *p < 0.05, **p < 0.01, ***p < 0.001, ****p < 0.0001, ^††††p < 0.0001.
Cellular oxygen consumption rate was measured using a Seahorse XF24 Extracellular Flux Analyser according to manufacturers’ instructions, as specified previously ([Hawley et al., 2010]).
Oxygen uptake of HEK-293 cells measured under basal conditions
(open bars), after addition of the indicated concentration of SU6656 or berberine (300 µM) (gray bars), then after subsequent addition of the uncoupler 2,4-dinitrophenol (DNP, hatched bars, 100 µM) […]
different before and after addition of SU6656 or berberine, while […]
subsequent addition of DNP.

Another experiment addresses T3, AMPK-γ2 (WT) (Homo sapiens, UniProt Q9UGJ0).
T3 construct: expressed in transfected cells; host or cells: Flp-In T-REx 293 (HEK293), tetracycline-inducible
The experiment can be described thus: AMPK activity in HEK293 cells expressing WT AMPK-γ2. The class given is cell-based. Conditions: 1 hr.
Excerpt: The next possibility was that, like several other AMPK-activating drugs, SU6656 inhibits mitochondrial ATP synthesis, and thus activates AMPK indirectly by increasing cellular AMP/ADP. To test this, we used cell lines inducibly expressing either WT AMPK-γ2 or an AMP/ADP-resistant R531G (RG) mutant ([Hawley et al., 2010]). […] There were no effects of SU6656 on cellular oxygen uptake, unlike berberine. Subsequent addition of the uncoupler 2,4-dinitrophenol (DNP), which prevents the respiratory chain from being limited by ADP supply, increased oxygen uptake identically in control and SU6656-treated cells but had no effect following berberine, as expected for a complex I inhibitor (Figure S2).
as §3
HEK-293 cells stably expressing tetracycline-inducible FLAG-tagged human AMPK-γ2, or an R531G mutant, were generated by introducing the corresponding DNAs into Flp-In™ T-REx™ 293 cells ([Auciello et al., 2014]). Expression of the FLAG-tagged constructs was induced for 48 hr using tetracycline (1 μg.ml^-1) prior to addition of compounds under test. Transient transfections were carried out 36-48 hr prior to experiments, using Fugene 6 according to manufacturers’ instructions.

T1 sequence (Q13131 1-312): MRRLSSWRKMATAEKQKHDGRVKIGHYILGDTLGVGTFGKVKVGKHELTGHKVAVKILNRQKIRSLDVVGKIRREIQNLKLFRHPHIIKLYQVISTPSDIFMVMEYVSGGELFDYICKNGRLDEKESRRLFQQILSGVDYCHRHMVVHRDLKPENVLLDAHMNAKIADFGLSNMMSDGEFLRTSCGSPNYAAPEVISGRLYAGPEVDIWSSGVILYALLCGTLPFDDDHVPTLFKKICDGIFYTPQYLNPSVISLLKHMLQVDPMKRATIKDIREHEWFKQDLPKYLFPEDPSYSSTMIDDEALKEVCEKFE
T2 sequence (Q13131 whole entry): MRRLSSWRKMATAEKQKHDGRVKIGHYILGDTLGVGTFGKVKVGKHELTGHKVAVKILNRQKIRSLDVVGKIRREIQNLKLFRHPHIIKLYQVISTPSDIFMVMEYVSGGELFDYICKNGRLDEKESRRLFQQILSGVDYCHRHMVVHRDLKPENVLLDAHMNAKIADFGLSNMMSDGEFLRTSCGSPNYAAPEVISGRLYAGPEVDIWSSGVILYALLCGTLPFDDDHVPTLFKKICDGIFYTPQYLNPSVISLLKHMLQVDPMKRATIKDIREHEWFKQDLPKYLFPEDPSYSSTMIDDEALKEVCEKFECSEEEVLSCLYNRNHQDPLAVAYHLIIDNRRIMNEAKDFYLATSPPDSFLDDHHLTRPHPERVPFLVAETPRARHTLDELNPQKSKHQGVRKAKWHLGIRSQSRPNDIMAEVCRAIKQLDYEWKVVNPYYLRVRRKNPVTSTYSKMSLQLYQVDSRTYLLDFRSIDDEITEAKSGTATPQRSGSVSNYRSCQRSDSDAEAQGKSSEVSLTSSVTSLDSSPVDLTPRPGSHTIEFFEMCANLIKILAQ
T2 sequence (P54619 whole entry partner): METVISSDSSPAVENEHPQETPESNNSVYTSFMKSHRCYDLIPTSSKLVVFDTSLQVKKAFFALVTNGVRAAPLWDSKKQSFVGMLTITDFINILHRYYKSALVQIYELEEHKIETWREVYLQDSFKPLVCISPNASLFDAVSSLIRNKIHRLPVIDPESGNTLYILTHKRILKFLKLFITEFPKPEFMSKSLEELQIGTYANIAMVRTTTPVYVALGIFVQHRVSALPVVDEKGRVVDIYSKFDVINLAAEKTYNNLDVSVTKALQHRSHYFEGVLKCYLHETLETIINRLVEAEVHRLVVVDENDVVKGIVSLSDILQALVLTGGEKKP
T3 sequence (Q9UGJ0 whole entry): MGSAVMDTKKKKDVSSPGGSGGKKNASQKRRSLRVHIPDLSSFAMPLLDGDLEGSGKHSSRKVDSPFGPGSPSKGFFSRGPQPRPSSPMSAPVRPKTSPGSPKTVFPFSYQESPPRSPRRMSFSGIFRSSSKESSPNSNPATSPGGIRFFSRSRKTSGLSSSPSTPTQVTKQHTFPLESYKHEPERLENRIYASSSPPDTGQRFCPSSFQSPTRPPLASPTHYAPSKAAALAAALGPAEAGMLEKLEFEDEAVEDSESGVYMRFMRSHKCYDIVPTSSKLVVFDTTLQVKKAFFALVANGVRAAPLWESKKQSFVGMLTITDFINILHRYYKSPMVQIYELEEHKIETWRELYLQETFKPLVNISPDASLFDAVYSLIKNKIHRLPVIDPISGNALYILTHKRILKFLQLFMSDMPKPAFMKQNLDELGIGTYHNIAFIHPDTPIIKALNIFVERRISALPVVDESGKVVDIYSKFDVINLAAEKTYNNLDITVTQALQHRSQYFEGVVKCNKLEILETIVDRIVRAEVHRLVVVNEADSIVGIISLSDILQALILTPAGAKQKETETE

Regarding `CN(C)S(=O)(=O)c1ccc2c(c1)/C(=C/c1cc3c([nH]1)CCCC3)C(=O)N2` [SU6656], the “kinase activity / Thr172 phosphorylation” value in experiment [1] and in experiment [2] was “increased kinase activity” in each case. Moreover, in the experiment on HEK293 cells, the cellular oxygen uptake entry is “no effects”. In addition, the AMPK activity result at AMPK-γ2 (WT) was “activated AMPK and enhanced Thr172 phosphorylation in both WT and RG cells”.
For the molecule `COc1ccc2cc3[n+](cc2c1OC)CCc1cc2c(cc1-3)OCO2` [berberine], the “kinase activity / Thr172 phosphorylation” value is “failed to activate or cause Thr172 phosphorylation” in experiment [1] and “doing this with the endogenous complexes” in experiment [2]. In addition, the AMPK activity entry on AMPK-γ2 (WT) is recorded as “activated AMPK in the WT”.
`CNC(=O)c1cc(Oc2ccc(NC(=O)Nc3ccc(Cl)c(C(F)(F)F)c3)cc2)ccn1` [sorafenib]: the “concentrations that rapidly inhibited cellular oxygen uptake” value in the experiment on HEK293 cells fell in the range of 3 to 30 µM.
